Source: PubChem BioAssay (NCI)
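Cells were grown in 96-well plates and exposed to each compound for 48 hours at five concentrations; endpoints were interpolated linearly between bracketing concentrations, or set to the highest concentration if not reached. TGI denotes the concentration required for complete inhibition of growth.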

Columns and labels:
Assay in all cases: DTP human tumour cell line panel, 48 h
NCI/ADR-RES ovarian = tested on: NCI/ADR-RES ovarian
SF-268 CNS = tested on: SF-268 CNS
RPMI-8226 leukemia = tested on: RPMI-8226 leukemia
786-0 renal = tested on: 786-0 renal
SR leukemia = tested on: SR leukemia
SF-539 CNS = tested on: SF-539 CNS
CCRF-CEM leukemia = tested on: CCRF-CEM leukemia
U251 CNS = tested on: U251 CNS
HL-60(TB) leukemia = tested on: HL-60(TB) leukemia
OVCAR-3 ovarian = tested on: OVCAR-3 ovarian
SNB-75 CNS = tested on: SNB-75 CNS
SK-MEL-5 melanoma = tested on: SK-MEL-5 melanoma
NCI-H23 lung = tested on: NCI-H23 lung
HCT-15 colon = tested on: HCT-15 colon
CAKI-1 renal = tested on: CAKI-1 renal
A498 renal = tested on: A498 renal
OVCAR-5 ovarian = tested on: OVCAR-5 ovarian
COLO 205 colon = tested on: COLO 205 colon
MCF7 breast = tested on: MCF7 breast
OVCAR-4 ovarian = tested on: OVCAR-4 ovarian
UACC-62 melanoma = tested on: UACC-62 melanoma
EKVX NSCLC = tested on: EKVX NSCLC
UO-31 renal = tested on: UO-31 renal
NCI-H460 lung = tested on: NCI-H460 lung
HCC-2998 colon = tested on: HCC-2998 colon
M14 melanoma = tested on: M14 melanoma
MDA-MB-435 = tested on: MDA-MB-435
T-47D breast = tested on: T-47D breast
HOP-62 NSCLC = tested on: HOP-62 NSCLC
HCT-116 colon = tested on: HCT-116 colon
BT-549 breast = tested on: BT-549 breast
TK-10 renal = tested on: TK-10 renal
HS 578T breast = tested on: HS 578T breast
SK-MEL-28 melanoma = tested on: SK-MEL-28 melanoma
HT29 colon = tested on: HT29 colon
K-562 leukemia = tested on: K-562 leukemia
MDA-MB-231 breast = tested on: MDA-MB-231 breast
SNB-19 CNS = tested on: SNB-19 CNS
A549 NSCLC = tested on: A549 NSCLC
MALME-3M melanoma = tested on: MALME-3M melanoma
SF-295 CNS = tested on: SF-295 CNS
MDA-N = tested on: MDA-N
NCI-H226 lung = tested on: NCI-H226 lung
ACHN renal = tested on: ACHN renal
OVCAR-8 ovarian = tested on: OVCAR-8 ovarian
NCI-H522 lung = tested on: NCI-H522 lung
PC-3 prostate = tested on: PC-3 prostate
LOX IMVI melanoma = tested on: LOX IMVI melanoma
DU-145 prostate = tested on: DU-145 prostate
SK-OV-3 ovarian = tested on: SK-OV-3 ovarian
SK-MEL-2 melanoma = tested on: SK-MEL-2 melanoma
RXF 393 renal = tested on: RXF 393 renal
SN12C renal = tested on: SN12C renal
HOP-92 NSCLC = tested on: HOP-92 NSCLC
IGROV1 ovarian = tested on: IGROV1 ovarian
SW-620 colon = tested on: SW-620 colon
KM12 colon = tested on: KM12 colon
MOLT-4 leukemia = tested on: MOLT-4 leukemia
UACC-257 melanoma = tested on: UACC-257 melanoma

[B]C(=O)NC(CC(C)C)C(=O)NCC(=O)NC1c2ccsc2C(=O)C1O (stereo not given) (tested in a mixture with another compound)
TGI (NCI/ADR-RES ovarian): > 100 µM
TGI (SF-268 CNS): > 100 µM
TGI (RPMI-8226 leukemia): > 100 µM
TGI (786-0 renal): > 100 µM
TGI (SR leukemia): > 100 µM
TGI (SF-539 CNS): > 100 µM
TGI (CCRF-CEM leukemia): > 31.6 µM
TGI (U251 CNS): > 100 µM
TGI (HL-60(TB) leukemia): > 100 µM
TGI (OVCAR-3 ovarian): > 100 µM
TGI (SNB-75 CNS): > 100 µM
TGI (SK-MEL-5 melanoma): > 100 µM
TGI (NCI-H23 lung): > 100 µM
TGI (HCT-15 colon): > 100 µM
TGI (CAKI-1 renal): > 100 µM
TGI (A498 renal): > 100 µM
TGI (OVCAR-5 ovarian): > 100 µM
TGI (COLO 205 colon): > 100 µM
TGI (MCF7 breast): > 100 µM
TGI (OVCAR-4 ovarian): > 100 µM
TGI (UACC-62 melanoma): > 100 µM
TGI (EKVX NSCLC): > 100 µM
TGI (UO-31 renal): > 100 µM
TGI (NCI-H460 lung): > 31.6 µM
TGI (HCC-2998 colon): > 100 µM
TGI (M14 melanoma): > 100 µM
TGI (MDA-MB-435): > 100 µM
TGI (T-47D breast): > 100 µM
TGI (HOP-62 NSCLC): > 100 µM
TGI (HCT-116 colon): > 100 µM
TGI (BT-549 breast): > 100 µM
TGI (TK-10 renal): > 100 µM
TGI (HS 578T breast): > 100 µM
TGI (SK-MEL-28 melanoma): > 100 µM
TGI (HT29 colon): > 100 µM
TGI (K-562 leukemia): > 31.6 µM
TGI (MDA-MB-231 breast): > 100 µM
TGI (SNB-19 CNS): > 100 µM
TGI (A549 NSCLC): > 100 µM
TGI (MALME-3M melanoma): > 100 µM
TGI (SF-295 CNS): > 100 µM
TGI (MDA-N): > 100 µM
TGI (NCI-H226 lung): > 100 µM
TGI (ACHN renal): > 100 µM
TGI (OVCAR-8 ovarian): > 100 µM
TGI (NCI-H522 lung): > 100 µM
TGI (PC-3 prostate): > 100 µM
TGI (LOX IMVI melanoma): > 100 µM
TGI (DU-145 prostate): > 100 µM
TGI (SK-OV-3 ovarian): > 100 µM
TGI (SK-MEL-2 melanoma): > 100 µM
TGI (RXF 393 renal): > 100 µM
TGI (SN12C renal): > 100 µM
TGI (HOP-92 NSCLC): > 100 µM
TGI (IGROV1 ovarian): > 100 µM
TGI (SW-620 colon): > 100 µM
TGI (KM12 colon): > 100 µM
TGI (MOLT-4 leukemia): > 100 µM
TGI (UACC-257 melanoma): > 100 µM

O=c1[nH]c(N/N=C\C(O)C(O)C(O)C(O)CO)nc2ccccc12 (stereo not given)
TGI (NCI/ADR-RES ovarian): > 100 µM
TGI (SF-268 CNS): > 100 µM
TGI (RPMI-8226 leukemia): > 100 µM
TGI (786-0 renal): > 100 µM
TGI (SR leukemia): > 100 µM
TGI (SF-539 CNS): > 100 µM
TGI (CCRF-CEM leukemia): > 100 µM
TGI (U251 CNS): > 100 µM
TGI (HL-60(TB) leukemia): > 100 µM
TGI (OVCAR-3 ovarian): > 100 µM
TGI (SNB-75 CNS): > 100 µM
TGI (SK-MEL-5 melanoma): > 100 µM
TGI (NCI-H23 lung): > 100 µM
TGI (HCT-15 colon): > 100 µM
TGI (CAKI-1 renal): > 100 µM
TGI (A498 renal): > 100 µM
TGI (OVCAR-5 ovarian): > 100 µM
TGI (COLO 205 colon): > 100 µM
TGI (MCF7 breast): > 100 µM
TGI (UACC-62 melanoma): > 100 µM
TGI (EKVX NSCLC): > 100 µM
TGI (UO-31 renal): > 100 µM
TGI (NCI-H460 lung): > 100 µM
TGI (M14 melanoma): > 100 µM
TGI (MDA-MB-435): > 100 µM
TGI (T-47D breast): > 100 µM
TGI (HOP-62 NSCLC): > 100 µM
TGI (HCT-116 colon): > 100 µM
TGI (BT-549 breast): > 100 µM
TGI (TK-10 renal): > 100 µM
TGI (HS 578T breast): > 100 µM
TGI (SK-MEL-28 melanoma): > 100 µM
TGI (HT29 colon): > 100 µM
TGI (K-562 leukemia): > 100 µM
TGI (MDA-MB-231 breast): > 100 µM
TGI (SNB-19 CNS): > 100 µM
TGI (A549 NSCLC): > 100 µM
TGI (SF-295 CNS): > 100 µM
TGI (MDA-N): > 100 µM
TGI (NCI-H226 lung): > 100 µM
TGI (ACHN renal): > 100 µM
TGI (OVCAR-8 ovarian): > 100 µM
TGI (PC-3 prostate): > 100 µM
TGI (LOX IMVI melanoma): > 100 µM
TGI (DU-145 prostate): > 100 µM
TGI (SK-OV-3 ovarian): > 100 µM
TGI (SK-MEL-2 melanoma): > 100 µM
TGI (SN12C renal): > 100 µM
TGI (HOP-92 NSCLC): > 100 µM
TGI (IGROV1 ovarian): > 100 µM
TGI (SW-620 colon): > 100 µM
TGI (KM12 colon): > 100 µM
TGI (MOLT-4 leukemia): > 100 µM
TGI (UACC-257 melanoma): > 100 µM

COC(=O)[C@@H]1[C@@H]2NC(=S)N[C@@]1(C)Oc1ccccc12
TGI (NCI/ADR-RES ovarian): > 100 µM
TGI (SF-268 CNS): > 100 µM
TGI (RPMI-8226 leukemia): > 100 µM
TGI (786-0 renal): > 100 µM
TGI (SR leukemia): > 100 µM
TGI (SF-539 CNS): > 100 µM
TGI (CCRF-CEM leukemia): > 100 µM
TGI (U251 CNS): > 100 µM
TGI (OVCAR-3 ovarian): > 100 µM
TGI (SNB-75 CNS): > 100 µM
TGI (SK-MEL-5 melanoma): > 100 µM
TGI (NCI-H23 lung): > 100 µM
TGI (HCT-15 colon): > 100 µM
TGI (CAKI-1 renal): > 100 µM
TGI (A498 renal): > 100 µM
TGI (OVCAR-5 ovarian): > 100 µM
TGI (COLO 205 colon): > 100 µM
TGI (MCF7 breast): > 100 µM
TGI (OVCAR-4 ovarian): > 100 µM
TGI (UACC-62 melanoma): > 100 µM
TGI (EKVX NSCLC): > 100 µM
TGI (UO-31 renal): > 100 µM
TGI (NCI-H460 lung): > 100 µM
TGI (HCC-2998 colon): > 100 µM
TGI (M14 melanoma): > 100 µM
TGI (MDA-MB-435): 33.5 µM
TGI (T-47D breast): > 100 µM
TGI (HOP-62 NSCLC): > 100 µM
TGI (HCT-116 colon): > 100 µM
TGI (BT-549 breast): > 100 µM
TGI (TK-10 renal): > 100 µM
TGI (HS 578T breast): > 100 µM
TGI (SK-MEL-28 melanoma): > 100 µM
TGI (HT29 colon): > 100 µM
TGI (K-562 leukemia): > 100 µM
TGI (MDA-MB-231 breast): > 100 µM
TGI (SNB-19 CNS): > 100 µM
TGI (MALME-3M melanoma): > 100 µM
TGI (SF-295 CNS): > 100 µM
TGI (MDA-N): 88.1 µM
TGI (NCI-H226 lung): > 100 µM
TGI (ACHN renal): > 100 µM
TGI (OVCAR-8 ovarian): > 100 µM
TGI (NCI-H522 lung): > 100 µM
TGI (PC-3 prostate): > 100 µM
TGI (LOX IMVI melanoma): > 100 µM
TGI (DU-145 prostate): > 100 µM
TGI (SK-OV-3 ovarian): > 100 µM
TGI (SK-MEL-2 melanoma): > 100 µM
TGI (RXF 393 renal): > 100 µM
TGI (SN12C renal): > 100 µM
TGI (HOP-92 NSCLC): > 100 µM
TGI (IGROV1 ovarian): > 100 µM
TGI (SW-620 colon): > 100 µM
TGI (KM12 colon): > 100 µM
TGI (MOLT-4 leukemia): > 100 µM
TGI (UACC-257 melanoma): > 100 µM
